Assay results: ChEMBL document CHEMBL4346724, “Porphyrinoid photosensitizers mediated photodynamic inactivation against bacteria” (Eur J Med Chem, 2019)

Legend:
Staphylococcus aureus [1] = assay: Photodynamic antibacterial activity against Staphylococcus aureus assessed as bacterial killing within 15 mins in presence of tungsten lamps light at 37 uEm'-2sec'-1 by spectrophotometic analysis relative to control; type: functional
Fusobacterium nucleatum = assay: Photodynamic antibacterial activity against Fusobacterium nucleatum assessed as reduction in bacterial viability at 10 uM in presence of light at 5.3 to 20.1 J/cm2 by propidium iodide staining-based fluorescence assay; type: functional
[2] = tested on: Capnocytophaga gingivalis; assay: Photodynamic antibacterial activity against Capnocytophaga gingivalis assessed as reduction in bacterial viability at 10 uM in presence of light at 5.3 to 20.1 J/cm2 by propidium iodide staining-based fluorescence assay; type: functional
Eikenella corrodens = assay: Photodynamic antibacterial activity against Eikenella corrodens assessed as reduction in bacterial viability at 10 uM in presence of light at 20.1 J/cm2 by propidium iodide staining-based fluorescence assay; type: functional
Porphyromonas gingivalis = assay: Photodynamic antibacterial activity against Porphyromonas gingivalis assessed as reduction in bacterial viability at 10 uM in presence of light at 5.3 to 20.1 J/cm2 by propidium iodide staining-based fluorescence assay; type: functional
[3] = tested on: Aggregatibacter actinomycetemcomitans; assay: Photodynamic antibacterial activity against Aggregatibacter actinomycetemcomitans assessed as reduction in bacterial viability at 10 uM in presence of light at 5.3 J/cm2 by propidium iodide staining-based fluorescence assay; type: functional
[4] = tested on: Aggregatibacter actinomycetemcomitans; assay: Photodynamic antibacterial activity against Aggregatibacter actinomycetemcomitans assessed as reduction in bacterial viability at 10 uM in presence of light at 20.1 J/cm2 by propidium iodide staining-based fluorescence assay; type: functional
Pseudomonas aeruginosa [5] = assay: Photodynamic antibacterial activity against Pseudomonas aeruginosa assessed as reduction in biofilm formation at 20 uM incubated for 10 mins in presence of tungsten halogen lamp light exposure at 22.5 to 180 J/cm2; type: functional
Staphylococcus aureus [6] = assay: Photodynamic antibacterial activity against Staphylococcus aureus assessed as reduction in biofilm activity at 2.5 uM incubated for 10 mins in presence of tungsten halogen lamp light exposure at 22.5 to 180 J/cm2; type: functional
Staphylococcus aureus [7] = assay: Photodynamic antibacterial activity against Staphylococcus aureus assessed as reduction in bacterial burden at 100 nM; type: functional
Escherichia coli [8] = assay: Photodynamic antibacterial activity against Escherichia coli assessed as reduction in bacterial burden at 5 uM after 15 mins in presence of light irradiation at 64.8 J/cm2; type: functional, organism-based
Enterococcus faecalis [9] = assay: Photodynamic antibacterial activity against Enterococcus faecalis assessed as reduction in bacterial burden in presence of light irradiation; type: functional, organism-based
Escherichia coli [10] = assay: Photodynamic antibacterial activity against Escherichia coli ATCC 25922 assessed as reduction in bacterial burden after 24 hrs in presence of diode laser at 6 J/cm2; type: functional
Pseudomonas aeruginosa [11] = assay: Photodynamic antibacterial activity against Pseudomonas aeruginosa assessed as reduction in bacterial burden at 1 to 10 uM preincubated for 10 mins in dark condition followed by exposure of LED light at 66 to 266 J/cm2; type: functional
Enterococcus faecalis [12] = assay: Photodynamic antibacterial activity against Enterococcus faecalis assessed as reduction in bacterial burden at 10 uM after 15 mins in presence of light irradiation at 64.8 J/cm2; type: functional
Pseudomonas aeruginosa [13] = assay: Photodynamic antibacterial activity against Pseudomonas aeruginosa assessed as bacterial killing at 2.5 mg/ml in presence of light at 100 J/cm2 relative to control; type: functional
Pseudomonas aeruginosa [14] = assay: Photodynamic antibacterial activity against Pseudomonas aeruginosa assessed as reduction in bacterial burden at 100 to 225 uM preincubated with bacteria followed by exposure of mercury vapor lamp light at 100 J/cm2 for 10 mins; type: functional
Enterococcus faecalis [15] = assay: Photodynamic antibacterial activity against Enterococcus faecalis assessed as reduction in bacterial burden at 5 uM after 15 mins in presence of light irradiation at 14.4 J/cm2; type: functional
Pseudomonas aeruginosa [16] = assay: Photodynamic antibacterial activity against Pseudomonas aeruginosa assessed as reduction in biofilm formation at 5 mg/ml in presence of light at 100 J/cm2 relative to control; type: functional; parameters: scale not given: the % may be the effect or the level left
Pseudomonas aeruginosa [17] = assay: Photodynamic antibacterial activity against Pseudomonas aeruginosa assessed as bacterial burden at 1 to 10 uM preincubated for 10 mins in dark condition followed by exposure of LED light at 66 to 266 J/cm2 relative to control; type: functional
Enterococcus faecalis [18] = assay: Photodynamic antibacterial activity against Enterococcus faecalis assessed as reduction in bacterial burden at 5 uM after 15 mins in presence of light irradiation at 64.8 J/cm2; type: functional
Enterococcus faecalis [19] = assay: Photodynamic antibacterial activity against Enterococcus faecalis assessed as reduction in bacterial burden at 5 uM after 15 mins in presence of light irradiation at 21.6 J/cm2; type: functional
Pseudomonas aeruginosa [20] = assay: Photodynamic antibacterial activity against Pseudomonas aeruginosa assessed as reduction in bacterial burden at 225 uM in presence of light at 100 J/cm2; type: functional
Escherichia coli [21] = assay: Photodynamic antibacterial activity against Escherichia coli assessed as reduction in bacterial burden at 0.5 to 1 uM after 15 mins in presence of light irradiation at 1004 J/cm2; type: functional
Pseudomonas aeruginosa [22] = assay: Photodynamic antibacterial activity against Pseudomonas aeruginosa assessed as biofilm formation at 0.5 mg/ml in presence of light at 100 J/cm2 relative to control; type: functional
Pseudomonas aeruginosa [23] = assay: Photodynamic antibacterial activity against Pseudomonas aeruginosa assessed as reduction in biofilm formation at 0.5 mg/ml in presence of light at 100 J/cm2; type: functional
Enterococcus faecalis [24] = assay: Photodynamic antibacterial activity against Enterococcus faecalis assessed as reduction in bacterial burden at 30 uM in presence of light irradiation at 100 J/cm2; type: functional
Enterococcus faecalis [25] = assay: Dark toxicity against Enterococcus faecalis assessed as reduction in bacterial burden; type: organism-based; conditions: in vivo
Enterococcus faecalis [26] = assay: Photodynamic antibacterial activity against Enterococcus faecalis assessed as reduction in bacterial burden at 10 uM in presence of light irradiation at 100 J/cm2; type: functional
Saccharomyces cerevisiae = assay: Photodynamic fungal activity against Saccharomyces cerevisiae assessed as reduction in fungal burden at 100 nM; type: functional
Helicobacter pylori [27] = assay: Photodynamic antibacterial activity against Helicobacter pylori infected in patient assessed as bacterial eradication at 20 mg/lg, po after 4 hrs in presence of white light relative to control; type: functional
Helicobacter pylori [28] = assay: Photodynamic antibacterial activity against Helicobacter pylori infected in patient assessed as bacterial eradication at 20 mg/lg, po after 4 hrs in presence of blue light relative to control; type: functional

## CC1=Cc2cc3[nH]c(cc4nc(cc5[nH]c(cc1n2)cc5C)C(C)=C4CCC(=O)O)c(CCC(=O)O)c3C
Staphylococcus aureus [1]
  Activity: 99.9%

## CC[C@H](C)CCCCCCCCCCC(=O)OC[C@H]1O[C@@H](OC(=O)/C(C)=C/C=C/C(C)=C/C=C/C(C)=C/C=C/C=C(C)/C=C/C=C(\C)CCC=C(C)C)[C@H](O)[C@@H](O)[C@@H]1O
Fusobacterium nucleatum
  log(activity): 5.3
[2]
  log(activity): 6.7
Eikenella corrodens
  log(activity): 3
Porphyromonas gingivalis
  log(activity): 4.9
[3]
  log(activity): -0.2
[4]
  log(activity): -1

## CN(C)CCCOc1ccc(-c2c3nc(c(-c4ccc(OCCCN(C)C)cc4)c4ccc([nH]4)c(-c4ccc(OCCCN(C)C)cc4)c4nc(c(-c5ccc(OCCCN(C)C)cc5)c5ccc2[nH]5)C=C4)C=C3)cc1
Pseudomonas aeruginosa [5]
  log(activity): 3
Staphylococcus aureus [6]
  log(activity): 8

## CC1(C)Cc2cc3[nH]c(cc4nc(cc5[nH]c(cc1n2)cc5C(=O)NCC[N+](C)(C)C)CC4(C)C)cc3C(=O)NCC[N+](C)(C)C
Staphylococcus aureus [7]
  log(activity): 5

## C[n+]1ccc(-c2c3nc(c(-c4cc[n+](C)cc4)c4ccc([nH]4)c(-c4ccc(C(=O)O)cc4)c4nc(c(-c5ccc(C(=O)O)cc5)c5ccc2[nH]5)C=C4)C=C3)cc1
Escherichia coli [8]
  log(activity): > 3
Enterococcus faecalis [9]
  log(activity): 7.03

## C=Cc1c(C)c2cc3nc(c(C=O)c4[nH]c(cc5nc(cc1[nH]2)C(C)=C5C)c(C)c4C(=O)O)[C@@H](CCC(=O)O)[C@@H]3C
Escherichia coli [10]
  log(activity): 0.17

## C[n+]1ccc(-c2c3nc(c(-c4cc[n+](C)cc4)c4ccc([nH]4)c(-c4cc[n+](C)cc4)c4nc(c(-c5cc[n+](C)cc5)c5ccc2[nH]5)C=C4)C=C3)cc1.[I-].[I-].[I-].[I-]
Pseudomonas aeruginosa [11]
  log(activity): <1
Enterococcus faecalis [12]
  log(activity): 5.07
Pseudomonas aeruginosa [13]
  Activity: >99%
Pseudomonas aeruginosa [14]
  log(activity): 4.1
Enterococcus faecalis [15]
  log(activity): 7.35
Pseudomonas aeruginosa [16]
  Activity: >99%
Pseudomonas aeruginosa [17]
  Activity: >80%
Enterococcus faecalis [18]
  log(activity): 7.33
Enterococcus faecalis [19]
  log(activity): 7
Pseudomonas aeruginosa [20]
  log(activity): 1.2

## C[n+]1ccc(-c2c3nc(c(-c4cc[n+](C)cc4)c4ccc([nH]4)c(-c4c(F)c(F)c(F)c(F)c4F)c4nc(c(-c5cc[n+](C)cc5)c5ccc2[nH]5)C=C4)C=C3)cc1.[I-].[I-].[I-]
Escherichia coli [21]
  log(activity): 3

## C[n+]1ccc(-c2c3nc(c(-c4cc[n+](C)cc4)c4ccc([nH]4)c(-c4cc[n+](C)cc4)c4nc(c(-c5cc[n+](C)cc5)c5ccc2[nH]5)C=C4)C=C3)cc1.Cc1ccc(S(=O)(=O)[O-])cc1.Cc1ccc(S(=O)(=O)[O-])cc1.Cc1ccc(S(=O)(=O)[O-])cc1.Cc1ccc(S(=O)(=O)[O-])cc1
Pseudomonas aeruginosa [22]
  Activity: 99.9%
Pseudomonas aeruginosa [23]
  log(activity): 4

## Oc1cccc(-c2c3nc(c(-c4cccc(O)c4)c4ccc([nH]4)c(-c4cccc(O)c4)c4nc(c(-c5cccc(O)c5)c5ccc2[nH]5)CC4)C=C3)c1 [TEMOPORFIN]
Enterococcus faecalis [24]
  log(activity): 6.7
Enterococcus faecalis [25]
  log(activity): 1.5
Enterococcus faecalis [26]
  log(activity): 5.8

## CC1(C)Cc2cc3[nH]c(cc4nc(cc5[nH]c(cc1n2)cc5CN(CCO)CCO)CC4(C)C)cc3CN(CCO)CCO
Saccharomyces cerevisiae
  log(activity): >6

## C[n+]1ccc(-c2c3nc(c(-c4ccc(C(=O)O)cc4)c4ccc([nH]4)c(-c4cc[n+](C)cc4)c4nc(c(-c5ccc(C(=O)O)cc5)c5ccc2[nH]5)C=C4)C=C3)cc1
Escherichia coli [8]
  log(activity): > 3
Enterococcus faecalis [9]
  log(activity): 0.88

## NCC(=O)CCC(=O)O [AMINOLEVULINIC ACID]
Helicobacter pylori [27]
  Activity: 85%
Helicobacter pylori [28]
  Activity: 66%

## COC(=O)c1ccc(-c2c3nc(c(-c4cc[n+](C)cc4)c4ccc([nH]4)c(-c4cc[n+](C)cc4)c4nc(c(-c5cc[n+](C)cc5)c5ccc2[nH]5)C=C4)C=C3)cc1.[I-].[I-].[I-]
Enterococcus faecalis [19]
  log(activity): 7
